# Results reported in ChEMBL document CHEMBL1201862, “PubChem BioAssay data set” (2004).
# Active and inactive are the calls of the source.
# Tests used:
# [1] = Luminescence Cell-Based Dose Confirmation HTS to Identify Activators of 5'UTR Stem-Loop Driven Alpha-Synuclein mRNA Translation in H4 Neuroglioblastoma Cells. [Related pubchem assays: 1829 (Project Summary), 1814 (Primary HTS)]; format: functional
# [2] = Luminescence Cell-Based Dose Response HTS to Identify Activators of Luciferase Translation or Activity in H4 […] Cells. [Related pubchem assays: 1829 (Project Summary), 1814 (Primary HTS)]; format: functional
# H4 = assay: Luminescence Cell-Based Dose Response HTS to Identify Activators of 5'UTR Stem-Loop Driven Prion Protein mRNA Translation in H4 Neuroglioblastoma Cells. [Related pubchem assays: 1829 (Project Summary), 1814 (Primary HTS)]; format: functional; conditions: Homo sapiens
# [3] = biological target: FAD-linked sulfhydryl oxidase ALR (Homo sapiens, UniProt P55789); assay: ALR-catalysed DTT oxidation blockers – biochemical, H2O2 detection, luminescence, cherry-pick, dose response (AID 493248)
# FAD-linked sulfhydryl oxidase ALR, sequence (P55789 whole entry): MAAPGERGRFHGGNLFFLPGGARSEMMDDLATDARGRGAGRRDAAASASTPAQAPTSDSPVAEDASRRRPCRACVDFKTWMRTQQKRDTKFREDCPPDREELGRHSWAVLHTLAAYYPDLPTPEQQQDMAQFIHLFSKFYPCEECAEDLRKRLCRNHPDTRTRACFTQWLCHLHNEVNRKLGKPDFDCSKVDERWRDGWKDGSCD
# [4] = biological target: T1, Corticotropin-releasing factor receptor 2/Corticotropin-releasing factor-binding protein (Homo sapiens, UniProt P24387+Q13324); assay: Dose Response confirmation of uHTS hits for small molecule antagonists of the CRF-binding protein and CRF-R2 receptor complex.; format: functional; conditions: read-out: IC50_Mean
# T1 sequence (Q13324 whole entry): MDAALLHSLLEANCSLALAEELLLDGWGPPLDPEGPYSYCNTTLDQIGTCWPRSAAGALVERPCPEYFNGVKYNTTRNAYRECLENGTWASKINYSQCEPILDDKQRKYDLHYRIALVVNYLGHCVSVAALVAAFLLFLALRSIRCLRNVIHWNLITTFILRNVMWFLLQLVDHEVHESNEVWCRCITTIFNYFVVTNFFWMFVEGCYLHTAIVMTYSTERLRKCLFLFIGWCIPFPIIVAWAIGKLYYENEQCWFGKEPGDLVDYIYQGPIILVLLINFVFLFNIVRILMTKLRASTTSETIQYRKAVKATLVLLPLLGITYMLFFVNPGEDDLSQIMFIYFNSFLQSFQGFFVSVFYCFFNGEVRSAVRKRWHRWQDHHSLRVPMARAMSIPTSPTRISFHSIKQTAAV
# T1 sequence (P24387 whole entry): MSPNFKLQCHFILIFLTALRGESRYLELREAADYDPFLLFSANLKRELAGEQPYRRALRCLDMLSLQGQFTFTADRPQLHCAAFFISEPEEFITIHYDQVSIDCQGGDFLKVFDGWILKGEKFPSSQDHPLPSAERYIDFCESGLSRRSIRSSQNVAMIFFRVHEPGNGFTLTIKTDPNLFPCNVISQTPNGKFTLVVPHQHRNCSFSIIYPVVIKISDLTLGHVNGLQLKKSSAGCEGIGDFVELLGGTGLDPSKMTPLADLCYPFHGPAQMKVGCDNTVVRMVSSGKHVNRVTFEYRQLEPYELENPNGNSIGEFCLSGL
# [5] = biological target: T1, Corticotropin-releasing factor receptor 2/Corticotropin-releasing factor-binding protein; assay: activators of CRF receptor 2 with binding protein – uHTS hits, confirmation (AID 602473); format: functional; conditions: read-out: EC50_Mean
# [6] = Luminescence Cell-Based Dose Retest to Confirm Inhibitors of Cancer Stem Cells. [Related pubchem assays (depositor defined):AID2717, AID2721]; format: functional; conditions: Homo sapiens
# [7] = biological target: T2, Rac GTPase-activating protein 1 (Homo sapiens, UniProt Q9H0H5); assay: blockers of MgcRacGAP-driven Rac1 GTP hydrolysis – biochemical, ADP Hunter fluorescence, primary and confirmatory, confirmation (AID 624330); format: functional
# T2 sequence (Q9H0H5 whole entry): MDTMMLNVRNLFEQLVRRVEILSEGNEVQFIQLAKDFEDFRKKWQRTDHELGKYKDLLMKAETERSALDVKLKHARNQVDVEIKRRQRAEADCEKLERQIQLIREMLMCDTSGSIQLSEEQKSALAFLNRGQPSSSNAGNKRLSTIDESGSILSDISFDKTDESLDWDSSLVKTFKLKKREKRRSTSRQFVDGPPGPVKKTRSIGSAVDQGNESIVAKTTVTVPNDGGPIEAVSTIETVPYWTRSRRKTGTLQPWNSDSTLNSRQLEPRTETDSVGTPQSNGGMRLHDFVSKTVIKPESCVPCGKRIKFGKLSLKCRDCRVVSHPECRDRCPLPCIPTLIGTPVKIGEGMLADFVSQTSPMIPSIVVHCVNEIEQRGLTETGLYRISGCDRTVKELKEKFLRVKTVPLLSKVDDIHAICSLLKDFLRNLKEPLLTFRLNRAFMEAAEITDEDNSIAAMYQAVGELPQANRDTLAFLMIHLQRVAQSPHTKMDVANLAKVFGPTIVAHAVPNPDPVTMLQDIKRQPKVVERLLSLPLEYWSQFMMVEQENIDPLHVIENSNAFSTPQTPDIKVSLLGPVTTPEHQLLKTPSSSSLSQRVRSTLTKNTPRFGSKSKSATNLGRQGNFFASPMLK
# [8] = P. falciparum Dd2 growth inhibitors, dose response, SYBR Green, cherry-picked samples (AID 1159567); format: functional, cell-based
# INS1 = assay: INS-1E survival protection against cytokine death – cell-based, luminescence, retest, dose response (AID 449756); format: functional; conditions: Rattus norvegicus;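 note: cell death triggered by IL-1 beta plus TNF-alpha plus IFN-gamma mixture; protective hits raise ATP signal compared with cytokine alone wells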
# [9] = Trypanosoma cruzi growth suppression in host cells – NIH3T3 host cells, beta-gal luminescence, confirmation (AID 2044); format: functional, cell-based;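 note: intracellular parasites grown in NIH/3T3 mouse fibroblasts as host cells; luminescent beta-galactosidase reporter signal from transgenic T. cruzi replicating inside host cells; inhibitors lower the luminescence signal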
# [10] = NIH3T3 cell viability loss – ATP luminescence, mouse fibroblasts, counter-screen, dose response (AID 2010); format: functional, cell-based;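 note: cells exposed to compound for about 90 hours before reading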
# [11] = reduction of Shn3 3'UTR-driven luciferase in osteoblasts – cell-based, Clone20 osteoblasts, firefly luciferase, cherry-picked, dose response (AID 624132); format: functional;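 note: firefly luciferase luminescence from reporter carrying the Shn3 3'UTR in osteoblasts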
# [12] = tested on: Streptococcus sp. 'group A'; assay: Streptococcus pyogenes SK(-)GAS viability under kanamycin – luminescence, BacTiterGlo, confirmation, counter-screen for streptokinase expression inhibitor project, dose response (AID 1900); format: functional, organism-based
# Streptococcus = assay: GAS UMAA2166 growth inhibition – luminescence, BacTiterGlo, counter-screen for streptokinase expression inhibitor project, dose response (AID 1915); format: functional, organism-based;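 note: potency for reduction of bacterial viability or growth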
# Streptokinase A = biological target: T3, Streptokinase A (Streptococcus pyogenes serotype M1, UniProt P10520); assay: viability-normalized secreted streptokinase activity reduction – plasminogen activation absorbance, OD405, dose response (AID 1914); format: functional, Streptococcus pyogenes M1 GAS;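 note: secreted streptokinase activity via plasminogen activation per viability signal from cell pellet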
# T3 sequence (P10520 whole entry): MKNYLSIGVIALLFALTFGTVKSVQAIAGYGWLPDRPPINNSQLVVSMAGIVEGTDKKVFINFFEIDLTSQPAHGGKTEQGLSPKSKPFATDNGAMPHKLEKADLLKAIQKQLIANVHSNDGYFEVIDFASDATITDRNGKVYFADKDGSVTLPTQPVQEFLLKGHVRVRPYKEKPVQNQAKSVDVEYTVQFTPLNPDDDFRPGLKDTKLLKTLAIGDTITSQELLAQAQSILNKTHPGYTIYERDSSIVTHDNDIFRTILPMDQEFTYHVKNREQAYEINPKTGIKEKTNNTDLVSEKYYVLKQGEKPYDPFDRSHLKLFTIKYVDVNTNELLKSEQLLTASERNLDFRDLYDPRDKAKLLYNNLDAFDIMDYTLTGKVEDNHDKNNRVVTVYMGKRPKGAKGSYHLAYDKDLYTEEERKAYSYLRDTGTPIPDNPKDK
# [13] = biological target: T4, Heat shock factor protein 1 (Mus musculus, UniProt P38532); assay: decrease of HSF1-responsive luciferase luminescence – cell-based, NIH3T3, dose retest, confirmation (AID 2382); format: functional;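 note: NIH3T3 fibroblasts with HSF1-driven luciferase reporter stressed by proteasome inhibitor MG132; luminescence from HSF1-driven luciferase expression after 8 hours of MG132 stress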
# T4 sequence (P38532 whole entry): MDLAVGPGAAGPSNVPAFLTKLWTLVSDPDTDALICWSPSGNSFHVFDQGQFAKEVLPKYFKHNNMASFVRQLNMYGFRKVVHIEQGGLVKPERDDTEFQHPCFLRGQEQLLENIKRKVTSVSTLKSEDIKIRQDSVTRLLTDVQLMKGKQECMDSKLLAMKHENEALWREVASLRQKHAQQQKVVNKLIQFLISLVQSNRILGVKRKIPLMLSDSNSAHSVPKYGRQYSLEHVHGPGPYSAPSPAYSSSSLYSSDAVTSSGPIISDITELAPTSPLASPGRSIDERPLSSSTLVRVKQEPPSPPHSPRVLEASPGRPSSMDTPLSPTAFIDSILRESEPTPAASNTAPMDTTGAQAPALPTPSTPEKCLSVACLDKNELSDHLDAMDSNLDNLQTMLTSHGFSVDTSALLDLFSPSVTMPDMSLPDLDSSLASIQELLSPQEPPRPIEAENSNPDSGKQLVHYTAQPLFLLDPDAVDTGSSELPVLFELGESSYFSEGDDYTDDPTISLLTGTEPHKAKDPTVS
structure (smiles),measurement,setting,value
CCc1cccc(NC(=O)Nc2cccs2)c1,EC50,[1],14.6 µM (active)
same,EC50,[2],2.48 µM (active)
same,EC50,H4,> 120 µM (not active)
Cc1ccsc1C(=O)NNC(=O)CCN1CCN(c2ccccc2)CC1,AC50,[3],4.88 µM (active)
CCc1sc(C(=O)NCCc2ccc(S(N)(=O)=O)cc2)cc1Br,IC50,[4],> 47.1 µM (inactive)
same,EC50,[5],> 53 µM (inactive)
CSCc1ccc(C(=O)NC(C)c2cnn(-c3ccccn3)c2C)o1 (stereo not drawn),AC50,[3],9.51 µM (active)
Cn1c(-c2ccccc2)cnc1NCc1ccc(-c2ccccc2)cc1,AC50,[6],1.34 µM (active)
same,IC50,[7],78.1 µM (active)
C[C@H](CO)N1C[C@H](C)[C@@H](CN(C)C(=O)c2ccccc2F)Oc2ncc(C#Cc3ccccc3)cc2C1=O,AC50,[8],4.79 µM (active)
CC1CCC(NC(=O)Nc2cccs2)CC1 (stereo not drawn),AC50,[3],1.18 µM (active)
C/C=C/c1ccc2c(c1)[C@H]1[C@H](CCN1C(=O)c1ccc3c(c1)OCO3)[C@H](CO)N2,AC50,[8],6.34 µM (active)
O=C1Nc2ccccc2N(O)N1c1cc(-c2cccc(Cl)c2)no1,AC50,[3],1.92 µM (active)
same,IC50,[4],> 47.1 µM (inactive)
same,EC50,[5],6.32 µM (active)
COC(=O)Nc1ccc(S(=O)(=O)N2CCC(C(=O)N(C)C3CCCCC3)CC2)cc1,AC50,[3],1.92 µM (active)
COc1ccc(NC(=O)N(C)C[C@H]2Oc3c(NS(=O)(=O)c4ccc(F)cc4)cccc3C(=O)N([C@H](C)CO)C[C@@H]2C)cc1,AC50,INS1,> 260 µM (inactive)
CN(Cc1ccccc1)S(=O)(=O)c1nnc(NC(=O)c2ccc(F)cc2)s1,IC50,[4],< 0.368 µM (active)
same,EC50,[5],> 53 µM (inactive)
O=C(Cc1ccc(-n2cccc2)cc1)N1CCN(c2ccccc2F)CC1,IC50,[4],> 47.1 µM (inactive)
same,EC50,[5],> 53 µM (inactive)
COc1ccc(NC2CCCN(C(=O)CCc3ccccc3F)C2)cc1 (stereo not drawn),AC50,[3],13.4 µM (active)
same,IC50,[7],65.4 µM (active)
Cc1ccc(NC2CCCN(C(=O)c3cc4ncccn4n3)C2)cc1C (stereo not drawn),AC50,[3],4.14 µM (active)
COc1cc(/C=N/NC(=O)c2ccc(O)nn2)ccc1O,AC50,[3],1.22 µM (active)
same,IC50,[7],23.9 µM (active)
Cc1ccc([N+](=O)[O-])cc1N(CC(=O)Nc1ccc(S(=O)(=O)Nc2cccc(C(F)(F)F)c2)cc1)S(C)(=O)=O,EC50,[9],1.86 µM (active)
same,EC50,[10],> 60 µM (not active)
same,AC50,[6],3.7 µM (active)
same,AC50,INS1,2.56 µM (active)
O=C(O)C1(Nc2ccccc2Cl)CCCC1,AC50,[11],29.5 µM (active)
COc1ccccc1OCCCCOc1ccccc1C(C)=O,AC50,INS1,12 µM (active)
COc1ccc(-c2nc3ccc(C)cn3c2NCc2ccccc2)cc1SC1CCCCC1,EC50,[9],1.2 µM (active)
same,EC50,[10],> 60 µM (not active)
same,AC50,INS1,2.61 µM (active)
COc1ccc(S(=O)(=O)N(CC(C)C)C2CCS(=O)(=O)C2)cc1OC (stereo not drawn),IC50,[4],> 47.1 µM (inactive)
same,EC50,[5],> 53 µM (inactive)
O=C(NNC(=O)c1ccccc1OCc1ccc(F)cc1)c1ccccc1O,EC50,[12],3.68 µM (active)
same,EC50,Streptococcus,3.62 µM (active)
same,AC50,INS1,2.67 µM (active)
CN1C(=O)NC(c2ccccc2)(C(F)(F)F)S/C1=C(/C#N)c1nnc(N2CCOCC2)n1-c1ccccc1 (stereo not drawn),EC50,Streptokinase A,> 150 µM (not active)
same,IC50,[4],> 47.1 µM (inactive)
same,EC50,[12],> 150 µM (not active)
same,EC50,Streptococcus,> 150 µM (not active)
same,EC50,[5],> 53 µM (inactive)
CCOC(=O)C1CCCN(C2CC(=O)N(c3ccccc3)C2=O)C1 (stereo not drawn),IC50,[4],> 47.1 µM (inactive)
same,EC50,[5],> 53 µM (inactive)
C/[N+]([O-])=C\C1C(=O)CC(C)(C)CC1=O,IC50,[4],> 47.1 µM (inactive)
same,EC50,[13],> 195 µM (not active)
same,EC50,[5],> 53 µM (inactive)
C[C@H]1CN([C@@H](C)CO)C(=O)c2c(c3ccccc3n2C)-c2ccccc2CO[C@@H]1CN(C)C(=O)Nc1cccc(F)c1,AC50,[8],5.29 µM (active)
Fc1ccc(N2CCN(Cc3ccccn3)CC2)cc1,AC50,[3],8.77 µM (active)
COc1ccc(C2NC(=O)C(C#N)=C(S)N2c2ccccc2)cc1OC (stereo not drawn),AC50,[3],< 0.014 µM (active)
